Experimental data as given in patent US20140135310A1, “SULPHONAMIDE DERIVATIVES OF ALICYCLIC AMINES FOR THE TREATMENT OF CENTRAL NERVOUS SYSTEM DISEASES” (Adamed Sp. z o.o., priority 2011, published 2014).

What was measured:
[1] = target: D2 dopaminergic receptors (Homo sapiens, UniProt P14416); test: Cellular functional assay, D2 dopaminergic receptors; assay type: cell-based; conditions: D2S (h), HEK-293 cells; for D2 ag [%]: agonism, percent of control specific agonist response (3 μM dopamine for control); for D2 antag [%]: antagonism, stimulus dopamine (30 nM)
Sequence of D2 dopaminergic receptors (P14416 whole entry): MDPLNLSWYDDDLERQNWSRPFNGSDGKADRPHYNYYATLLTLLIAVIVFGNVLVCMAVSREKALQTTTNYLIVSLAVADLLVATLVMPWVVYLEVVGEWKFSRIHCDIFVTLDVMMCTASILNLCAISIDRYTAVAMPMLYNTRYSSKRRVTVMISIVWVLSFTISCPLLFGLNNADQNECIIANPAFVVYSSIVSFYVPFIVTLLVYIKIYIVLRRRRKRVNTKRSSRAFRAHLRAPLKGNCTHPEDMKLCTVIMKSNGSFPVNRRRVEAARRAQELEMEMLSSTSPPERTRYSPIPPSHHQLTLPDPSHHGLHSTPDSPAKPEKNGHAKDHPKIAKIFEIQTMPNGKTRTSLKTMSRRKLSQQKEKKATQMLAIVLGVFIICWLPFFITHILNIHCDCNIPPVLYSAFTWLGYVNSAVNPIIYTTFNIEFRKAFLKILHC
Method: (§1) The results are expressed as a percent of control specific agonist response ((measured specific response/control specific agonist response)×100) obtained in the presence of the test compounds.
(§2) The EC50 values (concentration producing a half-maximal specific response) and IC50 values (concentration causing a half-maximal inhibition of the control specific agonist response) were determined by non-linear regression analysis of the concentration-response curves generated with mean replicate values using Hill equation curve fitting (Y=D+[(A−D)/(1+(C/C50)nH)], where Y=specific response, D=minimum specific response, A=maximum specific response, C=compound concentration, and C50=EC50 or IC50, and nH=slope factor). This analysis was performed using a software developed at Cerep (Hill software) and validated by comparison with data generated by the commercial software SigmaPlot® 4.0 for Windows® (© 1997 by SPSS Inc.).
(§3) For the antagonists, the apparent dissociation constants (Kb) were calculated using the modified Cheng Prusoff equation (Kb=IC50/(1+(A/EC50A)), where A=concentration of reference agonist in the assay, and EC50A=EC50 value of the reference agonist).

[2] = target: D3 dopaminergic receptors (Homo sapiens, UniProt P35462); test: Cellular functional assay, D3 dopaminergic receptors; assay type: cell-based; conditions: D3 (h), CHO cells; for D3 ag [%]: agonism, percent of control specific agonist response (0.3 μM dopamine for control); for D3 antag [%]: antagonism, stimulus dopamine (10 nM)
Sequence of D3 dopaminergic receptors (P35462 whole entry): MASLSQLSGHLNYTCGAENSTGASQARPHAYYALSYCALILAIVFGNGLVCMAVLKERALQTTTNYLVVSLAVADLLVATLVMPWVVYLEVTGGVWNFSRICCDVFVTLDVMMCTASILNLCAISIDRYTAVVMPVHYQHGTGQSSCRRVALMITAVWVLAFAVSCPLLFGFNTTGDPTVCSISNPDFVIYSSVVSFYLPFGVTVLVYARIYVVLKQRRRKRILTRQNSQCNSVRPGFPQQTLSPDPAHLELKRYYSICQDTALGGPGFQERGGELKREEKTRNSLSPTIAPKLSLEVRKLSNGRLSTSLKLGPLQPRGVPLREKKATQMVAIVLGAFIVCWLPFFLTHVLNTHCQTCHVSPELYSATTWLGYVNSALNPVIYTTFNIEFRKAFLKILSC
Method: as §1, §2, §3

For `O=S(=O)(N[C@@H]1CCN(CCCc2noc3cc(F)ccc23)C1)c1ccc2ccccc2c1` [Compound 206, N-[(3R)-1-[3-(6-Fluoro-1,2-benzoxazol-3-yl)propyl]pyrrolidin-3-yl]naphthalene-2-sulphonamide], the “D2 ag [%]” value [1] was 1%, the “D2 antag [%]” value [1] was 96% and the “D3 ag [%]” value [2] was 3%. The “D3 antag [%]” value [2] was 77%.

In the case of `Cc1c(S(=O)(=O)N[C@H]2CCN(CCCc3noc4cc(F)ccc34)C2)sc2ccc(Cl)cc12` [Compound 205, 5-Chloro-N-[(3S)-1-[3-(6-fluoro-1,2-benzoxazol-3-yl)propyl]pyrrolidin-3-yl]-3-methyl-benzothiophene-2-sulphonamide], the “D2 ag [%]” value [1] is reported as 3%, the “D2 antag [%]” value [1] is reported as 61% and the “D3 ag [%]” value [2] is reported as 7%. For the same compound, the “D3 antag [%]” value [2] was 95%.

With `COc1ccc2cc(S(=O)(=O)NC3CCN(CCCc4noc5cc(F)ccc45)C3)ccc2c1` (centres unmarked) [Compound 227, N-[1-[3-(6-Fluoro-1,2-benzoxazol-3-yl)propyl]pyrrolidin-3-yl]-6-methoxy-naphthalene-2-sulphonamide] the “D2 ag [%]” value [1] was 11%, the “D2 antag [%]” value [1] was 99% and the “D3 ag [%]” value [2] was −6%. The “D3 antag [%]” value [2] was 105%.

With `O=S(=O)(NC1CCN(CCCc2noc3cc(F)ccc23)C1)c1cc2ccc(F)cc2s1` (centres unmarked) [Compound 234, 6-Fluoro-N-[1-[3-(6-fluoro-1,2-benzoxazol-3-yl)propyl]pyrrolidin-3-yl]benzothiophene-2-sulphonamide] the “D2 ag [%]” value [1] was 2%, the “D2 antag [%]” value [1] was 91% and the “D3 ag [%]” value [2] was −14%. The “D3 antag [%]” value [2] was 89%.

For `O=S(=O)(N[C@H]1CCN(CCCc2noc3cc(F)ccc23)C1)c1cc2ccc(Cl)cc2s1` [Compound 199, 6-Chloro-N-[(3S)-1-[3-(6-fluoro-1,2-benzoxazol-3-yl)propyl]pyrrolidin-3-yl]benzothiophene-2-sulphonamide], the “D2 ag [%]” value [1] was 4% and the “D2 antag [%]” value [1] was 46%.

In the case of `O=S(=O)(NCC1CCN(CCCc2noc3cc(F)ccc23)C1)c1cccc2ccccc12` (centres unmarked) [Compound 239, N-[[1-[3-(6-Fluoro-1,2-benzoxazol-3-yl)propyl]pyrrolidin-3-yl]methyl]naphthalene-1-sulphonamide], the “D2 ag [%]” value [1] is reported as 2% and the “D2 antag [%]” value [1] is reported as 56%.

With `O=S(=O)(N[C@@H]1CCN(CCCc2noc3cc(F)ccc23)C1)c1ccc2cc(Cl)ccc2c1` [Compound 200, 6-Chloro-N-[(3R)-1-[3-(6-fluoro-1,2-benzoxazol-3-yl)propyl]pyrrolidin-3-yl]naphthalene-2-sulphonamide] the “D2 ag [%]” value [1] was 0%, the “D2 antag [%]” value [1] was 96% and the “D3 ag [%]” value [2] was −1%. The “D3 antag [%]” value [2] was 93%.

`Cc1c(S(=O)(=O)NC2CCN(CCCc3noc4cc(F)ccc34)C2)sc2ccc(F)cc12` (centres unmarked) [Compound 28, 5-Fluoro-N-[1-[3-(6-fluoro-1,2-benzoxazol-3-yl)propyl]pyrrolidin-3-yl]-3-methyl-benzothiophene-2-sulphonamide] was tested, and the “D2 ag [%]” value [1] was 1%, the “D2 antag [%]” value [1] was 87% and the “D3 ag [%]” value [2] was −8%. For the same compound, the “D3 antag [%]” value [2] was 74%.

“N-[1-[3-(6-Fluoro-1,2-benzoxazol-3-yl)propyl]pyrrolidin-3-yl]-1-methyl-imidazole-4-sulphonamide [Compound 217]” was tested, and the “D2 ag [%]” value [1] was 10% and the “D2 antag [%]” value [1] was 79%.

In the case of `Cc1c(S(=O)(=O)N[C@@H]2CCN(CCCc3noc4cc(F)ccc34)C2)sc2ccc(Cl)cc12` [Compound 204, 5-Chloro-N-[(3R)-1-[3-(6-fluoro-1,2-benzoxazol-3-yl)propyl]pyrrolidin-3-yl]-3-methyl-benzothiophene-2-sulphonamide], the “D2 ag [%]” value [1] is reported as 1%, the “D2 antag [%]” value [1] is reported as 86% and the “D3 ag [%]” value [2] is reported as −8%. The “D3 antag [%]” value [2] was 109%.

In the case of `O=S(=O)(N[C@H]1CCN(CCCc2noc3cc(F)ccc23)C1)c1cc2ccccc2o1` [Compound 215, N-[(3S)-1-[3-(6-Fluoro-1,2-benzoxazol-3-yl)propyl]pyrrolidin-3-yl]benzo-furan-2-sulphonamide], the “D2 ag [%]” value [1] is reported as 6% and the “D2 antag [%]” value [1] is reported as 91%.

`O=S(=O)(N[C@@H]1CCN(CCCc2noc3cc(F)ccc23)C1)c1cc2ccc(Cl)cc2s1` [Compound 198, 6-Chloro-N-[(3R)-1-[3-(6-fluoro-1,2-benzoxazol-3-yl)propyl]pyrrolidin-3-yl]benzothiophene-2-sulphonamide] was tested, and the “D2 ag [%]” value [1] was 4%, the “D2 antag [%]” value [1] was 83% and the “D3 ag [%]” value [2] was −17%. The “D3 antag [%]” value [2] was 97%.

For `O=S(=O)(N[C@H]1CCN(CCCc2noc3cc(F)ccc23)C1)c1cc2ccccc2s1` [Compound 197, N-[(3S)-1-[3-(6-Fluoro-1,2-benzoxazol-3-yl)propyl]pyrrolidin-3-yl]benzo-thiophene-2-sulphonamide], the “D2 ag [%]” value [1] was 1% and the “D2 antag [%]” value [1] was 82%.

For `O=S(=O)(NCC1CCN(CCCc2noc3cc(F)ccc23)C1)c1ccc2ccccc2c1` (centres unmarked) [Compound 240, N-[[1-[3-(6-Fluoro-1,2-benzoxazol-3-yl)propyl]pyrrolidin-3-yl]methyl]-naphthalene-2-sulphonamide], the “D2 ag [%]” value [1] was 3% and the “D2 antag [%]” value [1] was 64%.

With `O=S(=O)(NC1CCN(CCCc2noc3cc(F)ccc23)C1)c1cc2ccccc2o1` (centres unmarked) [Compound 216, N-[1-[3-(6-Fluoro-1,2-benzoxazol-3-yl)propyl]pyrrolidin-3-yl]benzofuran-2-sulphonamide] the “D2 ag [%]” value [1] was 0% and the “D2 antag [%]” value [1] was 86%.

For `O=S(=O)(N[C@@H]1CCN(CCCc2noc3cc(F)ccc23)C1)c1cc2ccccc2o1` [Compound 214, N-[(3R)-1-[3-(6-Fluoro-1,2-benzoxazol-3-yl)propyl]pyrrolidin-3-yl]benzo-furan-2-sulphonamide], the “D2 ag [%]” value [1] was 3%, the “D2 antag [%]” value [1] was 89% and the “D3 antag [%]” value [2] was 117%.

With `Cc1ccc2sc(S(=O)(=O)NC3CCN(CCCc4noc5cc(F)ccc45)C3)cc2c1` (centres unmarked) [Compound 226, N-[1-[3-(6-Fluoro-1,2-benzoxazol-3-yl)propyl]pyrrolidin-3-yl]-5-methylbenzothiophene-2-sulphonamide] the “D2 ag [%]” value [1] was 0%, the “D2 antag [%]” value [1] was 87% and the “D3 ag [%]” value [2] was −26%. The “D3 antag [%]” value [2] was 107%.

In the case of `COc1ccc2cc(S(=O)(=O)N[C@H]3CCN(CCCc4noc5cc(F)ccc45)C3)ccc2c1` [Compound 231, N-[(3S)-1-[3-(6-Fluoro-1,2-benzoxazol-3-yl)propyl]pyrrolidin-3-yl]-6-methoxy-naphthalene-2-sulphonamide], the “D2 ag [%]” value [1] is reported as 13%, the “D2 antag [%]” value [1] is reported as 49% and the “D3 ag [%]” value [2] is reported as −6%. For the same compound, the “D3 antag [%]” value [2] was 54%.

`Cc1c(S(=O)(=O)N[C@@H]2CCN(CCCc3noc4cc(F)ccc34)C2)sc2ccc(F)cc12` [Compound 202, 5-Fluoro-N-[(3R)-1-[3-(6-fluoro-1,2-benzoxazol-3-yl)propyl]pyrrolidin-3-yl]-3-methyl-benzothiophene-2-sulphonamide] was tested, and the “D2 ag [%]” value [1] was 0%, the “D2 antag [%]” value [1] was 95% and the “D3 ag [%]” value [2] was −5%. The “D3 antag [%]” value [2] was 81%.

For `O=S(=O)(NC1CCN(CCCc2noc3cc(F)ccc23)C1)c1ccc2cc(Cl)ccc2c1` (centres unmarked) [Compound 23, 6-Chloro-N-[1-[3-(6-fluoro-1,2-benzoxazol-3-yl)propyl]pyrrolidin-3-yl]naphthalene-2-sulphonamide], the “D2 ag [%]” value [1] was 1%, the “D2 antag [%]” value [1] was 87% and the “D3 ag [%]” value [2] was −10%. The “D3 antag [%]” value [2] was 68%.
